Legend:
[1] = biological target: T1, murine μ opioid receptor (Mus musculus, UniProt P42866); experiment: Competitive binding assay, [9-3H]bremazocine, membranes of stably transfected HEK293 cells; settings: for Receptor Affinity (relative to 100%) μ: single concentration, 20 μM; for Ki: average observed, from IC50 by Cheng-Prusoff, read-out: Inhibition Constant, Ki μ
T1 construct: expressed in transfected cells
Method: (§1) Competitive Binding Assays. Human embryonic kidney (HEK) 293 cells (ATCC CRL, 1573) were cultured at 37° C. in Dulbecco's modified Eagle's medium supplemented with 10% fetal bovine serum, 100 units/ml penicillin and 100 μg/ml streptomycin sulfate. HEK293 cells were transfected by electroporation with expression plasmids encoding murine δ or μ opioid receptors tagged at the amino termini with the FLAG-tag epitope or the human κ receptor. Cells stably expressing opioid receptors were selected in media containing 0.75 mg/ml G418 (Life Technologies, Gaithersburg, Md.).
(§2) Cell membrane preparations were collected from the stable transfectants described above. Opioid receptor binding assays were conducted in duplicate on membrane preparations that had been resuspended in 50 mM Tris-HCL, pH 7.5, utilizing [9-^3H]bremazocine (specific activity 2.6 Ci/mmol, NEN, Boston, Mass.) as radioligand and 10 μM cyclazocine to define non-specific binding. Following a one-hour incubation on ice, binding assays were terminated by filtration through Whatman GF/B filters. Filters were soaked in Ecoscint liquid scintillation solution (National Diagnostics, Manville, N.J.) and filter-bound radioactivity was measured using a Packard Tri-Carb 2100 TR liquid scintillation analyzer. Receptor binding data were analyzed by non-linear regression of saturation and competition curves using Prism 3.0 software (GraphPad Software, San Diego, Calif.). Protein concentrations were determined with the Bio-Rad protein microassay (Hercules, Calif.) using bovine serum albumin as standard.
(§3) The binding affinities for compounds listed in Table 1 (4a-c and 5a-c) were determined by competition of [9-^3H]bremazocine binding to membranes prepared from stable cells expressing either the cloned μ, δ, or κ opioid receptors as described in the above sections.
(§4) To determine the selectivity profile of compound 5c toward the cloned opioid receptors, competitive binding assays were performed in the presence of increasing concentrations of compound 5c.
(§5) Preliminary Test for Agonist vs. Antagonist Activity. A simple method to determine whether a compound is acting as an agonist or antagonist at a G-Protein coupled receptor is to perform the competitive binding assay in the presence of 100 mM NaCl. The presence of NaCl in the resuspension buffer will result in about a 4 fold decrease in binding affinity for an opioid receptor agonist, whereas an antagonist will show about a 1 fold increase in receptor affinity.

[2] = biological target: T2, human κ receptor (Homo sapiens, UniProt P41145); experiment: as above; settings: for Receptor Affinity (relative to 100%) κ: single concentration, 20 μM; for Ki: average observed, from IC50 by Cheng-Prusoff, read-out: Inhibition Constant, Ki κ
T2 construct: expressed in transfected cells
Method: as §1, §2, §3, §4, §5

[3] = test system: murine δ opioid receptor; experiment: biochemical; format: binding; settings: for Selectivity for δ receptor (δ/κ): ratio of receptor affinities δ to κ; for Selectivity for δ Receptor (δ/μ): ratio of receptor affinities δ to μ
Method: as §1, §2, §3, §4, §5

[4] = biological target: T3, murine δ opioid receptor (Mus musculus, UniProt P32300); experiment: biochemical; format: binding; settings: for Receptor Affinity (relative to 100%) δ: single concentration, 20 μM
T3 construct: expressed in transfected cells
Method: as §1, §2, §3, §4, §5

[5] = 100 mM NaCl in resuspension buffer
[6] = Inhibition Constant, Ki δ, average observed, from IC50 by Cheng-Prusoff

Compound	melting point [°C]	Receptor Affinity (relative to 100%) μ [1] [%]	Receptor Affinity (relative to 100%) κ [2] [%]	Selectivity for δ receptor (δ/κ) [3]	Selectivity for δ Receptor (δ/μ) [3]	Receptor Affinity (relative to 100%) δ [4] [%]	increase in binding affinity in the presence of NaCl, μ [1, 5] [fold]	Ki [1] [nM]	agonist vs. antagonist activity, μ ([1]; preliminary test, 100 mM NaCl)	increase in binding affinity in the presence of NaCl, κ [2, 5] [fold]	Ki [2] [nM]	agonist vs. antagonist activity, κ ([2]; preliminary test, 100 mM NaCl)	selectivity among the three receptor subtypes ([3]; at 20 μM, μ, δ, κ)	increase in binding affinity in the presence of NaCl, δ [4, 5] [fold]	Ki [4, 6] [nM]	Ki ([4]; binding affinity for the δ opioid receptor, summary of Table 3) [nM]	agonist vs. antagonist activity, δ ([4]; preliminary test, 100 mM NaCl)
COc1cccc(-n2cnnc2-c2ccc(C(C)(C)C)cc2)c1 [Compound 4a, 1-{3-[4-(tert-Butyl)phenyl]-(1,2,4-triazol-4-yl)}-3-methoxybenzene]	118.2 to 118.8	14	18	1.72	2.21	31											
COc1cccc(-n2cnnc2-c2cc(C(C)(C)C)ccc2OC)c1 [Compound 4b, 1-{3-[5-(tert-Butyl)-2-methoxyphenyl](1,2,4-triazol-4-yl)}-3-methoxybenzene]	119.5 to 120	20	27	0.30	0.27	8											
COc1cccc(-n2cnnc2-c2cccc(C(C)(C)C)c2)c1 [Compound 4c, 1-{3-[3-(tert-Butyl)phenyl]-(1,2,4-triazol-4-yl)}-3-methoxybenzene]	175 to 175.5	19	27	0.07	0.11	2											
CC(C)(C)c1ccc(-c2nncn2-c2cccc(O)c2)cc1 [Compound 5a, 1-{3-[4-(tert-Butyl)phenyl]-(1,2,4-triazol-4-yl)}-3-phenol]		18	48	0.44	1.17	21											
CC(C)(C)c1ccc(O)c(-c2nncn2-c2cccc(O)c2)c1 [Compound 5b, 1-{3-[5-(tert-Butyl)-2-hydroxyphenyl]-(1,2,4-triazol-4-yl)}-3-phenol]		21	20			~0											
CC(C)(C)c1cccc(-c2nncn2-c2cccc(O)c2)c1 [Compound 5c, 1-{3-[3-(tert-Butyl)phenyl]-(1,2,4-triazol-4-yl)}-3-phenol]	242.5 to 243.5	72	85	0.46	0.54	39	~1	444	antagonist	~1	1390	antagonist	non-selective	~1	136	~100	antagonist
CN(C)c1nnc(-c2ccc(C(C)(C)C)cc2)n1-c1cccc(O)c1 [Compound 5d, 1-{3-[4-(tert-butyl)phenyl]-5-N,N-dimethylamino-(1,2,4-triazol-4-yl)}-3-phenol]								4000			> 10000				300		

Source: US7045520B2, “Opioid receptor active compounds” (The Curators of the University of Missouri, priority 2002, dated 2006)
